Results taken from patent US20180368393A1, “PRE- AND POST-STORAGE STRESS RESPONSE CONDITIONING” (CPSI HOLDINGS LLC, priority 2017, published 2018).
Entries after “also recorded” stand apart in the source; their conditions may differ. Where a SMILES comes first, the peptide text is derived from it. The star is where a group is joined. Cbz = O=C(OCc1ccccc1)*; CH2F = FC*

Experiments:
[1] = tested on: human smooth muscle cells; assay: Human smooth muscle cell monolayer survival and repopulation following cryopreservation (Calcein-AM assay); type: cell-based
Protocol: (§1) The device was used to thaw the samples, which were frozen in situ in monolayers in standard 96-well tissue culture plates. Samples were thawed from less than −170° C. to about 4° C. in the 96-well plate format in about 5 mins in a dry clean (“sterile”) environment.
The study described in example 3.1 focuses on the collection of cell survival data and the impact of post-thaw conditioning on human smooth muscle cells (SMCs). Specific activities included application of the high throughput monolayer sample cryopreservation protocol and collection of data (survival and cell death) from samples frozen using 6 unique cryopreservation solutions (U5, U10, U20, U5G10, U10G10, DP6) and 6 unique modulators (resveratrol, salubrinal, caspase inhibitors (IV, 8, 9) and NAC). Survival was determined at 24 hours post-thaw to allow for the manifestation of any delayed onset cell death pathways to be executed. Further, cell recovery was included to evaluate the long term potency and repopulation potential of the various samples.
A series of experiments was conducted to evaluate the performance of several solutions (U5, U10, U20, U5G10, U10G10 and DP6) as well as the impact of pre-freeze (PF) and post-warming (PW) conditioning with the apoptotic inhibitors Caspase 8, Caspase 9 and Caspase IV inhibitors. Cell samples were processed using the monolayer CP protocol and analyzed following 24 hours to 7 days post thaw for survival and recovery. These experiments were conducted to evaluate the impact of molecular modulators (inhibitors) during pre-freeze or post-thaw recovery on cell survival when added to the media 1 hour prior to or 24 hour following cryopreservation. […] To this end, samples were probed with Calcein-AM, incubated for 30 mins in the dark and then imaged using a Zeiss Axiovert 200 fluorescence microscope and Axiovision software. Images were taken at 24 hours to 7 days post-thaw to allow for assessment of solution and post-thaw conditioning agent performance.
As in previous experiments, the 24 hour time point was used for initial survival assessment, as this time point allows for the manifestation of molecular based cell stress-induced death. This provides a more accurate measure of survival than 0 or 1 hour post-thaw assessment, as is typically used. The 3 day time point was selected to assess re-population potential of any surviving cells as an indicator of long term potency.
For smooth muscle cell pre-freeze (PF) conditioning studies, 1 hour prior to CP addition, culture media was decanted and 100 μL of fresh media supplemented with caspase 8, 9, or IV was added to each respective well. Samples were then incubated at 37° C. for 1 hour, followed by media removal and addition of 100 μL of CP solution to samples followed by cryopreservation as described above. Following preservation, samples were thawed, diluted, and placed into culture. Following 24 hours recovery, cell viability was assessed.
For smooth muscle cell post-warming (PW) conditioning studies, following thawing and cryopreservation, CP solution was removed or diluted with culture media supplemented with caspase 8, 9, or IV. FIG. 18 illustrates the impact of apoptotic inhibition post-freeze conditioning on human smooth muscle cell survival 1 day following cryopreservation with and without reduced CPA.
For P/P conditioning studies, 1 hour prior to CP addition, culture media was decanted and 100 μL of fresh media supplement with caspase 8, 9, or IV was added to each respective well.

[2] = tested on: endothelial and smooth muscle cells; assay: Summary of Examples 2-3: post-thaw survival of endothelial and smooth muscle cells (Calcein-AM assay); type: cell-based, human
Protocol: For pre-freeze (PF), post-warming (PW) and pre/post (P/P) conditioning studies, molecular modulation agents targeting inhibition of apoptosis (Caspase inhibitor IV, 8, 9 and a combination of Caspases 8 and 9), reduction of free-radical damage (resveratrol and NAC), and activation of the unfolded protein response (salubrinal) were employed as supplements in the media 1 hour prior to freezing (pre-freeze condition) or for 1 day following thawing and CPA removal from frozen samples (post-warming condition).
as §1
The P/P regime was followed by PW using Caspase 8 inhibition or NAC inhibition.

human endothelial cells = assay: Human endothelial cell monolayer survival and repopulation following cryopreservation (Calcein-AM assay); type: cell-based; conditions: for post-thaw viability: P/P conditioning, U10 and U5G10 CP solutions vs matched non-treated samples; for day 1 survival increase over non-treated samples: U10G10
Protocol: A series of cryopreservation experiments was conducted on human endothelial and smooth muscle cell suspensions and monolayers to assess the performance of four (4) commercially available cryopreservation solutions: DP6, VS55, VS83, and M22, as well as nine (9) additional solutions: […] Eurocollins (EC) solution was included as a negative control, i.e., no cryoprotective agent (CPA) control, while media+10% DMSO ([…]) is a typical solution (10% DMSO) used in standard controlled rate cryopreservation protocols known to the skilled individual. Unisol is representative of the class of intracellular-like or intracellular-type solutions/media, whereas EC solution and culture media are representative of the class of extracellular-like or extracellular-type solutions/media. Other studies presented herein provide additional examples of intracellular- and extracellular-like solutions; other intracellular- and extracellular-like solutions are similarly useful and are known to those of skill in the art. FIG. 1 illustrates the results of an assessment of human endothelial cell survival following preservation. Monolayers of endothelial cells were frozen or vitrified and thawed in the indicated solutions (control, Uni, […], DP6, VS55, VS83, and […]). Following thawing, samples were diluted in culture media, placed into culture and assessed for viability at 1 day (24 hours) post-thaw and following seven (7) days of recovery using the Calcein-AM assay. […] The Uni and U10 conditions provided outcomes exceeding that of the VS55, VS83 and […] conditions. Therefore, subsequent studies (see, e.g., FIG. 2) focused on Unisol-based solutions with various CPAs and concentrations, in addition to the DP6 commercial cryopreservation solution. […] Monolayers of endothelial cells were frozen or vitrified and thawed in the indicated solutions. […] For pre-freeze (PF), post-warming (PW) and pre/post (P/P) conditioning studies, molecular modulation agents targeting inhibition of apoptosis (Caspase inhibitor IV, 8, 9 and a combination of Caspases 8 and 9), reduction of free-radical damage (resveratrol and NAC), and activation of the unfolded protein response (salubrinal) were employed as supplements in the media 1 hour prior to freezing (pre-freeze condition) or for 1 day following thawing and CPA removal from frozen samples (post-warming condition). Based on outcomes in the studies in Example 1, PF, PW and P/P conditioning were examined in Examples 2-3 using a series of Unisol-based solutions (Uni, U5, U10, U20, UG10, U5G10 and U10G10). […] Patent Application Publication No. US 2016/0097583 A1 (Ser. No. 14/876,087), which is incorporated by reference in its entirety as though fully set forth herein. The freeze and thaw process was slightly modified relative to the disclosure of U.S. Patent Application Publication No. US 2016/0097583 A1 by the addition of a 0.090 inch aluminum plate inserted into the bottom of the 96 well plate to aid in increasing cooling and heating uniformity throughout the plate, thereby reducing the well-to-well variability within the samples. The device was used to thaw the samples, which were frozen in situ in monolayers in standard 96-well tissue culture plates. […] A mitochondrial-mediated apoptotic inhibitor (Caspase 9) and a membrane-mediated apoptotic inhibitor (Caspase 8) were investigated to evaluate the involvement and impact of modulation of various apoptotic induction pathways. Additionally, a pan-Caspase inhibitor (Cas IV) was also investigated to assess the impact of global pathway modulation. As with the viability studies, cell survival and repopulation were assessed using Calcein-AM assays and analyzed using fluorescent microscopy (Zeiss). Survival was determined at 24 hours post-thaw to allow for the manifestation of any delayed onset cell death pathways to be executed. Further, cell recovery was included to evaluate the long term potency and repopulation potential of the various samples. […]

[3] = tested on: human hematopoietic stem cells (hHSC); assay: Human hematopoietic stem cell survival following cryopreservation (Calcein-AM assay); type: cell-based; conditions: cryopreserved in DMSO 10%
Protocol: The studies described in example 4 focus on the collection of cell survival data and the impact of post-thaw conditioning on human stem cells (hHSCs). Specific activities included standard cryopreservation protocol and collection of data (survival and cell death) from samples frozen using 6 unique cryopreservation solutions (Media, M5, M10, Unisol, U5 and U10) and 4 unique modulators (resveratrol (OSI), salubrinal (UPRI), caspase inhibitor (AI) and NAC). Survival was determined at 24 hours post-thaw to allow for the manifestation of any delayed onset cell death pathways to be executed. […]
A series of experiments was conducted to evaluate the performance of several solutions (media, M5, M10, Unisol, U5, and U10) as well as the impact of post-warming (PW) conditioning with the molecular modulators. Cell samples were processed using a standard controlled rate cooling suspension protocol and analyzed following 24 hours to 7 days post thaw for survival and recovery. […] To this end, samples were probed with Calcein-AM, incubated for 30 mins in the dark and then imaged using a Zeiss Axiovert 200 fluorescence microscope and Axiovision software. […]
For hHSC post-warming (PW) conditioning studies, following thawing each sample was diluted with culture media supplemented with the respective molecular modulator added to the dilution media. Samples were incubated in culture for 24 hours, then assessed. […]

[4] = PF and PW caspase inhibitor conditioning, U10G10 solution
[5] = P/P conditioning, vs non-conditioned samples
[6] = PF conditioning, U10, U20, U5G10 and U10G10

SMILES: CC[C@H](C)[C@H](NC(=O)OCc1ccccc1)C(=O)N[C@@H](CCC(=O)OC)C(=O)N[C@H](C(=O)N[C@@H](CC(=O)OC)C(=O)CF)[C@@H](C)O [Caspase 8 inhibitor] (Cbz-IE(OMe)TD(OMe)-CH2F)
- increase over non-treated U10G10 samples ([1]; P/P caspase inhibitor conditioning, U10G10, day 1 survival): ~50%
- day 1 survival, % of controls ([1]; P/P caspase inhibitor conditioning, U10G10, listed as Caspase 8): ~60%
- day 1 survival, % of controls ([1]; P/P caspase inhibitor conditioning, U10G10, listed as caspase 8): about 70%
- day 1 survival, % of controls ([1]; P/P caspase inhibitor conditioning, U10G10, listed as caspase 8 inhibitor): ~70%
- cell repopulation / day 3 recovery ([1]; P/P caspase inhibitor conditioning, Unisol+CPA conditions and DP6): marked improvement in day 3 recovery
- smooth muscle cell recovery and repopulation (overall) [1, 4]: improvement in smooth muscle cell recovery and repopulation
- recovery at 3 days post-thaw ([1]; PW caspase inhibitor conditioning): complete recovery of the samples to pre-freeze controls
- day 1 cell survival ([1]; PW caspase inhibitor conditioning, Unisol+CPA solutions): slight increase in cell survival
- day 1 post-thaw cell survival and cell recovery ([2]; PF, PW and P/P conditioning, Unisol based solutions): improved
- increase in cell survival over non-treated samples ([2]; PW conditioning): ~50%
- increase in survival over non-treated samples ([2]; U10G10, P/P conditioning, day 1): > 2 fold
- day 1 cell survival / post-thaw viability (human endothelial cells; P/P caspase inhibitor conditioning, Unisol+CPA samples vs non-treated matched samples): improvement in cell survival
- cell repopulation / day 3 recovery (human endothelial cells; P/P caspase inhibitor conditioning, Unisol+CPA solutions and DP6): most beneficial; also recorded: marked improvement in all solutions in day 3 recovery
- cell recovery and repopulation (overall) (human endothelial cells; [4]): improvement in cell recovery and repopulation
- recovery at 3 days post-thaw (human endothelial cells; PF caspase inhibitor conditioning, Unisol+CPA conditions): improvement in recovery
- day 3 recovery (human endothelial cells; PW caspase inhibitor conditioning, U10, U20 and U5G10 vs non-treated): marked improvement in day 3 recovery
- cell recovery 3 days post-thaw (human endothelial cells; PW caspase inhibitor conditioning, Unisol+CPA conditions): improvement in cell recovery
- day 1 cell survival (human endothelial cells; post-warming (PW) caspase inhibitor conditioning 24 hours, Unisol+CPA solutions, vs non-treated matched samples): overall increase in cell survival
- day 1 cell survival (human endothelial cells; post-warming (PW) caspase inhibitor conditioning 24 hours, Unisol+CPA solutions, vs non-treated matched samples, listed as Caspase 8): slight improvement in cell survival
- cell survival (human endothelial cells; pre/post (P/P) caspase inhibitor conditioning, U10G10 solution, day 1): ~90%

SMILES: C[S+](C)[O-] [DMSO, dimethyl sulfoxide]
- cell loss rates [3]: greater than 50%

SMILES: Oc1ccc(C=Cc2cc(O)cc(O)c2)cc1 [resveratrol]
- day 1 cell survival [1, 5]: slight to no improvement in cell survival
- post-thaw viability (human endothelial cells): increase in post-thaw viability
- day 1 survival increase over non-treated samples (human endothelial cells; PF conditioning 1 hour): ~2 fold
- day 1 cell survival (human endothelial cells; [6]): Improvement
- day 1 survival increase over non-treated samples (human endothelial cells; PW conditioning 24 hours): ~2 fold

SMILES: O=C(/C=C/c1ccccc1)NC(NC(=S)Nc1cccc2cccnc12)C(Cl)(Cl)Cl (stereo not drawn) [salubrinal]
- day 1 cell survival [1, 5]: slight to no improvement in cell survival
- day 1 cell survival ([1]; PW conditioning, vs non-treated matched samples): minimal benefit
- post-thaw viability (human endothelial cells): increase in post-thaw viability
- day 1 cell survival (human endothelial cells; [6]): Improvement
